# Experimental data as given in paper PMC11969024, “Development of chemokine network inhibitors using combinatorial saturation mutagenesis” (Communications Biology, 2025).
# Ends that are not written are not given here.
# Key:
# [1] = system: THP1 cells; test: Chemokine dose-response, THP1 cell migration; format: cell-based, human; details: mean of biological replicates (2-7); for Mean pEC80: 3-parameter log-logistic fit, maximum fixed at 100%
# Experimental: (§1) Cell lines were confirmed mycoplasma free by monthly testing using a MycoAlert^TM kit (LT07-118, Lonza) following the manufacturer’s instructions. THP1 cells: THP1 cells (ECACC 88081201, a human monocyte leukemia cell line[51]) were obtained from ECACC and were cultured in T175 flasks at 0.3-1 × 10^6 cells/mL in Roswell Park Memorial Institute (RPMI) 1640 medium (R0883, Sigma) with 10% FBS (F9665, Sigma) and 5mM L-glutamine (G7513, Sigma), 37 °C, 5% CO2. J:CXCR1 cells: The J:CXCR1 cell line was cultured in the same manner as THP1 cells at 0.15-1 × 10^6 cells per mL[37]. Activated T-cells: T-cells were isolated, activated and expanded as follows. Briefly, density gradient centrifugation using Lymphoprep^TM density gradient medium (07801, […] Technologies) and a SepMate^TM isolation tube (85450, […] Technologies) was used to isolate peripheral blood mononuclear cells from human leukocyte cones. Two rounds of purification using a human CD8 + T-cell isolation kit (480011, BioLegend) were used to isolate CD8 + T-cells from peripheral blood mononuclear cells. Activation of CD8 + T-cells was performed in ImmunoCult^TM-XF T-cell expansion medium (10982, […] Technologies) with an anti-CD3/anti-CD28 T-cell activator at 25 μl/ml (10991, […] Technologies), supplemented with 10 ng/ml recombinant human IL-2 (200-02, PeproTech) with 1% penicillin/streptomycin. T-cells were passaged every 2–3 days in TexMACS medium (130-097-196, Miltenyi Biotec), supplemented with 10 ng/ml human IL-2 (200-05-250, Peprotech) and incubated at 37 °C in 5% CO2. CD8 + T-cells were frozen at day 10-13 after initial activation, at 20×10^6 cell/ml in TexMACS medium supplemented with 10% DMSO (D2650, Sigma) in liquid nitrogen. Activated CD8^+ T-cells were recovered in TexMACs medium at 0.3 × 10^6 cell/ml and incubated at 37 °C in 5% CO2, 24 h prior to use. For buffy coat experiments a mixture of primary human monocytes, granulocytes and lymphocytes was isolated from human buffy coat. Briefly, RBCs were sedimented in HetaSep (07806, […] Technologies) with 1 mL of HetaSep per 5 mL of blood for 15 min at 37 °C. The buffy coat layer was collected from the top and washed in 50 ml MACS buffer (PBS (P4417, Sigma), 0.5% BSA (A7030, Sigma), 0.075% EDTA (E5134, Sigma), pH 7.2), by centrifugation at 2000 g for 10 min at room temperature. The pellet was resuspended in 10 mL of 1x RBC lysis solution (130-094-183, Miltenyi Biotec) and lysed for 10 min at room temperature. The cells were then washed in MACS buffer twice as above. The final pellet was resuspended in 1 mL of MACS buffer per 5 mL of initial blood volume and counted using cell size FSC-H/SSC-H parameters with gate settings previously defined by immunostaining (see below). The leukocytes were then resuspended in assay buffer for cell migration and used within 30 min of isolation.
# (§2) Cell counts were determined using an ATTUNE NxT Flow Cytometer with Cytkick autosampler (ThermoFisher), based on cell size parameters FSC-H/SSC-H, with previously defined gate settings. FSC-H/SSC-H gate settings for primary white blood cells from buffy coats were determined using flow cytometry to establish the granulocyte, monocyte and lymphocyte populations (Supplementary Fig. 13). Briefly, cells were labelled with anti-CD3 (Miltenyi Biotec, 130-113-135) to identify the T cell population, anti-CD14 (Miltenyi Biotec, 130-110-578) to identify the monocyte population, and with anti-CD16 (Miltenyi Biotec, 130-113-951) to identify the granulocyte population. Negative control cells were labelled with anti-human IgG1 (Miltenyi Biotec, 130-113-434). All antibodies were allophycocyanin (APC) conjugated. 100,000 white blood cells were added to Eppendorf tubes and centrifuged at 300 g for 3 min. The supernatant was discarded, and the cells resuspended in 98 µL of MACS buffer (1× PBS, 2 mM EDTA and 0.5% BSA, sterile filtered). 2 µl of antibody was added to the cells. […]
# [2] = system: activated T-cells (ATC); test: Chemokine dose-response, activated T-cell (ATC) migration; format: cell-based, human; details: mean of biological replicates (3-6)
# Experimental: as §1, §2
# [3] = lyophilised peptide, data provided by the manufacturer, ref GenScript, cited from earlier work; for Solubility, Water: C-terminal amide
# [4] = system: panel of 22 biotinylated chemokines; test: Saturation (NNK) mutagenesis phage-display selection against biotinylated chemokines, enrichment by NGS; format: binding, human; details: two-sided Dunnett's test; for log2E compared to parental HD2, CXnC chemokines: 7 CXnC chemokines; for log2E compared to parental HD2, CC chemokines: 15 CC chemokines; for log2E compared to parental HD2, all chemokines: three selection rounds, 22 chemokines
# Description: 81-mer mutant oligonucleotides replacing NNK at each of the 16 peptide encoding residues were designed with the sequence arms 5’-[…], and […]-3’ at respective ends to enable amplification and cloning. Oligonucleotides (Genscript) were individually amplified and cloned into plasmid prSTOP4Nsi (described in[37]). prSTOP4Nsi was amplified using primers (Sigma): […]
# Oligonucleotides were amplified using primers (Sigma): oligo_fwd: 5’-[…] and oligo_rev2: 5’-[…]. The PCR products were cloned into prSTOP4Nsi plasmid using NEB Builder HiFi Assembly (E5520, NEB) following instructions of the manufacturer. The vector pool was used to transform electrocompetent ElectroMAX™ DH5α-E™ cells (11319019, Invitrogen). Plasmid DNA was harvested by MaxiPrep (GeneJet Plasmid Maxiprep Kit (K0491, Thermo Scientific)). DNA was transformed into SS320 phage display electrocompetent cells (60512, Lucigen), following the manufacturer’s protocol. Following electroporation, cells were resuspended in 950 μL recovery media and transferred to 50 mL Falcon tubes. 100 μL 10^11 CFU/mL M13KO7 helper phage (N0315S, NEB) was added, and tubes shaken at 37 °C, 220 RPM, 1 h. 1 mL recovery culture was added to 2YT medium containing +50ug/mL carbenicillin (C9231, Sigma) and 25ug/mL kanamycin (K1377, Sigma), and grown overnight at 37 °C, 220 RPM. Phage was precipitated from culture supernatant by adding 22.5 mL of supernatant to 4.5 mL 20% PEG 8000 (89510, Sigma)/2.5 M NaCl (S9625, Sigma), incubating on ice for 30 min, and centrifuging at 12857 g, 4 °C, 10 min. The phage pellet was resuspended in 1 mL of PBT (PBS (P4417, Sigma), BSA (A7030, Sigma) 0.20%, Tween 20 (P1379, Sigma) 0.05%). Undissolved particulate matter was removed by centrifugation at 15871 g, 4 °C, 10 min. Glycerol (G5516, Sigma, 10% final (v/v) was added, and aliquots stored at −80 °C. A schematic of phage-display library construction is provided in Supplementary Fig. 12.
# Phage display screening was performed as described. Experiments were performed in 96-well plates (Greiner Bio-One, 655180). Biotinylated chemokines or complement C5A (1μg, Almac or Protein Foundry) were incubated overnight at 4 °C with shaking at 250 RPM with 5μl streptavidin-coated magnetic beads (Dynabeads™ M-280 Streptavidin, Invitrogen, 11205D) in 100 μl PBS. Chemokine-bound beads were blocked for two hours in 200μl blocking buffer (PBS (phosphate-buffered saline, Sigma, P4417) + 0.2% BSA (bovine serum albumin, Sigma, A7030) with shaking at 250 RPM. Phage library (100μL, 10^10 CFU/mL) was bound to blocked beads for two hours at room temperature with shaking at 250 RPM. Beads were washed 15 times with PT buffer (PBS + 0.05% Tween 20 (Sigma, P1379)) to remove unbound phage then transferred to a fresh plate. Beads were incubated with 100μL phage-resistant Omnimax E. coli (Invitrogen, A10469) at optical density (OD600) 0.6-0.8, shaken at 37 °C for 30 min. Following this 10 µL M13K07 helper phage (NEB, N0315S, final concentration 10^10 CFU/mL) was added and shaken at 37 °C for 45 min. Cells were transferred to 1 mL 2YT medium (at pH7, MP Biomedicals™, 113012031, supplemented with 150 µg/mL carbenicillin (Sigma, C9231) and 75 µg/mL kanamycin (Sigma, K1377) in a 96-deep well block with V-bottom (Corning, CLS3960) and grown with overnight shaking at 37 °C, 200 RPM. Plates were either centrifuged at 2000g (4 °C, 30 min) or transferred to screw cap tubes and pelleted by centrifugation at 4000 g and 4 °C for 15 min. 540 µL of supernatant was transferred to a new 96-deep well plate, 60 µL of 10×PBT (10×PBS + 2% BSA + 0.5% Tween 20) added and stored at 4 °C for subsequent rounds. Phage display was carried out for three rounds. A schematic of phage-display library screening is provided in Supplementary Fig. 12.
# We amplified inserts from the input library and from the selected phage population directly from phage by PCR using primers: 5’-[…] and 5’-[…] (Life Technologies). […]
# [5] = system: activated CD8+T-cells (ATC); test: Activated T-cell (ATC) migration induced by individual chemokines, inhibition by peptide; format: cell-based, human; details: peptide 10 uM; chemokines at EC80; Dunnett's test
# Experimental: as §1, §2
substance,measurement,setting,value
"CCL2: human chemokine, Peprotech 300-04",Mean pEC80,[1],8.35 [M]
same,Mean pEC50,[1],8.73 [M]
"CCL3: human chemokine, Peprotech 300-08",Mean pEC80,[1],9.31 [M]
same,Mean pEC50,[1],9.64 [M]
"CCL5: human chemokine, Peprotech 300-06",Mean pEC80,[1],8.36 [M]
same,Mean pEC50,[1],8.65 [M]
"CCL7: human chemokine, Peprotech 300-17",Mean pEC80,[1],8.02 [M]
same,Mean pEC50,[1],8.37 [M]
"CCL19: human chemokine, Peprotech 300-29B",Mean pEC50,[2],7.91 [M]
same,Mean pEC80,[2],7.64 [M]
"CXCL9: human chemokine, Peprotech 300-26",Mean pEC50,[2],7.40 [M]
same,Mean pEC80,[2],7.22 [M]
"CXCL10: human chemokine, Peprotech 300-12",Mean pEC50,[2],7.87 [M]
same,Mean pEC80,[2],7.50 [M]
"CXCL11: human chemokine, Peprotech 300-46",Mean pEC50,[2],8.25 [M]
same,Mean pEC80,[2],7.99 [M]
"CXCL12: human chemokine, Peprotech 300-28A",Mean pEC50,[2],8.93 [M]
same,Mean pEC80,[2],8.54 [M]
DDDDWWDYAPLTCYFD [HD2CM526],"Solubility, Water",[3],Insoluble
same,"Solubility, DMSO",[3],Soluble
same,"Solubility, PBS",[3],Insoluble
DEDDWDAYAPIWCYFT-NH2 [HD2CM304],"Solubility, Water",[3],Insoluble
same,"Solubility, DMSO",[3],Soluble
same,"Solubility, PBS",[3],Insoluble
DEDDWDDYAPITCYFT-NH2 [HD2CM307],"Solubility, Water",[3],Insoluble
same,"Solubility, DMSO",[3],Insoluble
same,"Solubility, HCOOH",[3],Soluble
same,"Solubility, PBS",[3],Insoluble
"EEDDYDAYAPLTCYFT [HD2T6D, HD2 point mutant]","log2E compared to parental HD2, CXnC chemokines",[4],significant improvement
same,"log2E compared to parental HD2, CC chemokines",[4],significant improvement
same,"log2E compared to parental HD2, all chemokines",[4],significantly improved
"EEDDYTAYAPITCYFT [HD2L11I, HD2 point mutant]","inhibition of CCL19, CCL21, CXCL9, and CXCL11-induced migration of ATCs compared to parental HD2",[5],significant improvement in inhibition
same,"log2E compared to parental HD2, CC chemokines",[4],significant improvement
same,"log2E compared to parental HD2, all chemokines",[4],significantly improved
EEDDYTAYAPLTCYFT-NH2 [HD2],"Solubility, Water",[3],Insoluble
same,"Solubility, DMSO",[3],Soluble
same,"Solubility, PBS",[3],Insoluble
"EEDDYTDYAPLTCYFT [HD2A7D, HD2 point mutant]","log2E compared to parental HD2, CXnC chemokines",[4],significant improvement
same,"log2E compared to parental HD2, all chemokines",[4],significantly improved
"TLETDTFYECPDAYAY [HD2SCR, reference compound]","Solubility, Water",[3],Insoluble
same,"Solubility, DMSO",[3],Soluble
same,"Solubility, PBS",[3],Insoluble
